The values that follow come from ChEMBL document CHEMBL1144430, “Convergent synthesis and pharmacology of substituted tetrazolyl-2-amino-3-(3-hydroxy-5-methyl-4-isoxazolyl)propionic acid analogues” (J Med Chem, 2005).

Test [1] in a line: In vitro activity at Ionotropic glutamate receptor using cortical wedge assays.
The target of the next test is Glutamate receptor 1 (Homo sapiens, UniProt P42261). Briefly: Binding affinity for ionotropic Glutamate receptor AMPA 1 expressed in Sf9 cells.
A further test concerns the target Glutamate receptor 3 (Homo sapiens, UniProt P42263). Briefly: Binding affinity for ionotropic Glutamate receptor AMPA 3 expressed in Sf9 cells.
The target of a further test is Glutamate receptor 2 (Homo sapiens, UniProt P42262). Briefly: Binding affinity for ionotropic Glutamate receptor AMPA 2 expressed in Sf9 cells.
The target of the next test is Glutamate receptor 4 (Homo sapiens, UniProt P48058). As to the kind of experiment: Binding affinity for ionotropic Glutamate receptor AMPA 4 expressed in Sf9 cells.
The target of test [2] is Glutamate receptor ionotropic, kainate 1 (Homo sapiens, UniProt P39086). As to the kind of experiment: Binding affinity for kainate Glutamate receptor GluR5 expressed in Sf9 cells.
The target of test [3] is Glutamate receptor ionotropic, AMPA (Rattus norvegicus, UniProt P19490+P19491+P19492+P19493). As to the kind of experiment: Displacement of [3H]AMPA from Ionotropic glutamate receptor of in rat brain synaptosomes. It counts as subcellular. For orientation: Loss of bound radioactivity is the signal in a displacement assay; it reports binding, not function.
The target of test [4] is Glutamate receptor ionotropic, kainate. As to the kind of experiment: Displacement of [3H]KA from glutamate receptor of rat brain synaptosomes. It counts as subcellular.
For test [5], the target named is Glutamate receptor ionotropic, kainate 2 (Homo sapiens, UniProt Q13002). Briefly: Binding affinity for kainate Glutamate receptor GluR6 expressed in Sf9 cells.
The target of a further test is Glutamate NMDA receptor. Briefly: Displacement of [3H]-CGP- 39653 from N-methyl-D-aspartate glutamate receptor of rat brain synaptosomes. It counts as subcellular.

The term EC50 denotes the concentration at which the effect is half-maximal. The term Ki denotes a dissociation constant, usually derived from enzyme kinetics or from competition with a known ligand. In general, IC50 refers to the concentration needed to halve the response being measured.

Glutamate receptor 1, sequence (P42261 whole entry): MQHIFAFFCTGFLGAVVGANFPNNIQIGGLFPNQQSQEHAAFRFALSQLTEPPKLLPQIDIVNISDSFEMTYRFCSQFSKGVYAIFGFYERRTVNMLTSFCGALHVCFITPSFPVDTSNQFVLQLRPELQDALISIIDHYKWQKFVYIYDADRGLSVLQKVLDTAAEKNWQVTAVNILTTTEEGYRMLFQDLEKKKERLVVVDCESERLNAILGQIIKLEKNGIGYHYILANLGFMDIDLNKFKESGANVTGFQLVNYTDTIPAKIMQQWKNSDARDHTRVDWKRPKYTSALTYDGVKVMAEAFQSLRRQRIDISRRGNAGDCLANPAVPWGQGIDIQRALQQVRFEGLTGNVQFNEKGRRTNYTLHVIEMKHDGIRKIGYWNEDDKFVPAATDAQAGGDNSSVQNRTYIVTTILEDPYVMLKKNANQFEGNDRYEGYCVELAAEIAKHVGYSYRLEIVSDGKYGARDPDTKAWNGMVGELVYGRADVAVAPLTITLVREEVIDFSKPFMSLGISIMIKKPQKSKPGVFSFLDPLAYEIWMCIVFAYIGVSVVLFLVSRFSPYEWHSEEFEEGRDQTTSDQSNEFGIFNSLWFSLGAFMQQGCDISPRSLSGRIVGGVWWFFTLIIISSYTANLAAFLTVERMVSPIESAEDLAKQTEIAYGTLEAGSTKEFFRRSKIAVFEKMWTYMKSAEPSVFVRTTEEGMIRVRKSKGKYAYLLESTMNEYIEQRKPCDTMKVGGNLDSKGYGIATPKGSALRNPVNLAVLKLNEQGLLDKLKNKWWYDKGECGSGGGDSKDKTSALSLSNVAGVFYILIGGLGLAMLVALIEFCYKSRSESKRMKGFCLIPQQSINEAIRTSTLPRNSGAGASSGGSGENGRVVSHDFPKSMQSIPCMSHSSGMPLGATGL
Glutamate receptor 4, sequence (P48058 whole entry): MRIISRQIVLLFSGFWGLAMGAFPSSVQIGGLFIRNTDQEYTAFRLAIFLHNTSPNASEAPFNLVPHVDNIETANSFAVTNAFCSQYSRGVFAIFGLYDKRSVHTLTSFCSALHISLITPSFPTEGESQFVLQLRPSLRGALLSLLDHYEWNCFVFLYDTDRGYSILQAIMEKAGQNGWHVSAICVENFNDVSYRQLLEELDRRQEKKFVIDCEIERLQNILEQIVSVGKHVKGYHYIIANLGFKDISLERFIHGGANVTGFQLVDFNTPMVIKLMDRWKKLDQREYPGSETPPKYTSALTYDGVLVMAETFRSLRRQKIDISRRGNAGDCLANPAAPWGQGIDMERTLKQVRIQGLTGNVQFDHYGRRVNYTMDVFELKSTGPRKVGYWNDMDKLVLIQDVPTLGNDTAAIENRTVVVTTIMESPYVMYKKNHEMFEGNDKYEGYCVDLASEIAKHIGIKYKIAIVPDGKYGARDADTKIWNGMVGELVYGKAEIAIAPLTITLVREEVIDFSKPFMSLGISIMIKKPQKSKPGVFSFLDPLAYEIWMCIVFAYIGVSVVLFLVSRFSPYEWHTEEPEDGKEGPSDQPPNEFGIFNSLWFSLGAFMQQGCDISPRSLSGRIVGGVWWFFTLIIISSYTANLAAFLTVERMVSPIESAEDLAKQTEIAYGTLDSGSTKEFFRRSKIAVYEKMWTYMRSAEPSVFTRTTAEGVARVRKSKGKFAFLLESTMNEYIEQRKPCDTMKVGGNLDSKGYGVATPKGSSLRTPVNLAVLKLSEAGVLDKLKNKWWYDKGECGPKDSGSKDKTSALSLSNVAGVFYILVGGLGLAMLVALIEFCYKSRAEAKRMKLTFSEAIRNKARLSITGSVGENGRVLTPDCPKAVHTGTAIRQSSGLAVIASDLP
Glutamate receptor 2, sequence (P42262 whole entry): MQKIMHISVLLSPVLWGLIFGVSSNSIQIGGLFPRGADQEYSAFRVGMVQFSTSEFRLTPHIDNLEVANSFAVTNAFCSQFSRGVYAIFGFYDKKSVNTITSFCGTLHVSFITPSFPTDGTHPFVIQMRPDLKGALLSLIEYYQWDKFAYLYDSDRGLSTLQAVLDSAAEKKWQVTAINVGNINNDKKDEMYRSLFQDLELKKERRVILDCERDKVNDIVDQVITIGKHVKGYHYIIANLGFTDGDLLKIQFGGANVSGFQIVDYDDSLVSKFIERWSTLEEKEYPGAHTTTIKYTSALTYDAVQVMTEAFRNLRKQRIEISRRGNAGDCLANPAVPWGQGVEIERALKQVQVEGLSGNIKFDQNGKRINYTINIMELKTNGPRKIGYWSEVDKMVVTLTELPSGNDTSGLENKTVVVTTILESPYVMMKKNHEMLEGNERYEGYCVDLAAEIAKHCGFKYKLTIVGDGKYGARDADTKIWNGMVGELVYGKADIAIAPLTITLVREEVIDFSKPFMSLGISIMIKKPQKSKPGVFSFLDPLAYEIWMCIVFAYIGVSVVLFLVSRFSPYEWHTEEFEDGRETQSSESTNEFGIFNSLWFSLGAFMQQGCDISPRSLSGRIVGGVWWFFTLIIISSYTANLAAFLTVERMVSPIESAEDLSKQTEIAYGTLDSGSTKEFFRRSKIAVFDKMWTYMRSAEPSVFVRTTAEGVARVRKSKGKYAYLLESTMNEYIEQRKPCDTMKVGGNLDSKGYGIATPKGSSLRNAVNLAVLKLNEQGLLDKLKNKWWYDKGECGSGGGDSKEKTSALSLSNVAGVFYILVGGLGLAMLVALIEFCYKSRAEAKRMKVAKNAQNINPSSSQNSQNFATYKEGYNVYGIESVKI
Glutamate receptor ionotropic, kainate 2, sequence (Q13002 whole entry): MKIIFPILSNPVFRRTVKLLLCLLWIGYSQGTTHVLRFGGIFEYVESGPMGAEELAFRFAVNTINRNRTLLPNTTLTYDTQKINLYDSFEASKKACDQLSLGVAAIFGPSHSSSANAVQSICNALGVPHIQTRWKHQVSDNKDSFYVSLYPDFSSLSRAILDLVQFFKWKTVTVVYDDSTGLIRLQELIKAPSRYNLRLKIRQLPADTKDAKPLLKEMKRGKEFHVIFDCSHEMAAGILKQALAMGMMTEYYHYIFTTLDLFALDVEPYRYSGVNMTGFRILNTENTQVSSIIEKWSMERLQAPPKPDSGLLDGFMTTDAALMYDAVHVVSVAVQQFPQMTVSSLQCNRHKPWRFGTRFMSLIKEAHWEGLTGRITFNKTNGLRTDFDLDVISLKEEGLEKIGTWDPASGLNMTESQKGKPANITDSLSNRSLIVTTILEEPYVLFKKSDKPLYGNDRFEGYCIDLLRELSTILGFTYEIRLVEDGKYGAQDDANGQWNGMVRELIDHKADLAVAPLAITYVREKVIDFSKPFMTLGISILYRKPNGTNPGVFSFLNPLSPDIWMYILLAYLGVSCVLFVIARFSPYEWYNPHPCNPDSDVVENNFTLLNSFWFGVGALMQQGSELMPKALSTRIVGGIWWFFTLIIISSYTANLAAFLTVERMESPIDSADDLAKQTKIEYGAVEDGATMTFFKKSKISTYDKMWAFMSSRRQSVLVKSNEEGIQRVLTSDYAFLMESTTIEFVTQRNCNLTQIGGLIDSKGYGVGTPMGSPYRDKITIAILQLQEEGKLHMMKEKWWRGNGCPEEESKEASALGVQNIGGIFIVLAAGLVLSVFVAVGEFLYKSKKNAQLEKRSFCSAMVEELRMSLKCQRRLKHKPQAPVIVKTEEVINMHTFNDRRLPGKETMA
Glutamate receptor ionotropic, kainate 1, sequence (P39086 whole entry): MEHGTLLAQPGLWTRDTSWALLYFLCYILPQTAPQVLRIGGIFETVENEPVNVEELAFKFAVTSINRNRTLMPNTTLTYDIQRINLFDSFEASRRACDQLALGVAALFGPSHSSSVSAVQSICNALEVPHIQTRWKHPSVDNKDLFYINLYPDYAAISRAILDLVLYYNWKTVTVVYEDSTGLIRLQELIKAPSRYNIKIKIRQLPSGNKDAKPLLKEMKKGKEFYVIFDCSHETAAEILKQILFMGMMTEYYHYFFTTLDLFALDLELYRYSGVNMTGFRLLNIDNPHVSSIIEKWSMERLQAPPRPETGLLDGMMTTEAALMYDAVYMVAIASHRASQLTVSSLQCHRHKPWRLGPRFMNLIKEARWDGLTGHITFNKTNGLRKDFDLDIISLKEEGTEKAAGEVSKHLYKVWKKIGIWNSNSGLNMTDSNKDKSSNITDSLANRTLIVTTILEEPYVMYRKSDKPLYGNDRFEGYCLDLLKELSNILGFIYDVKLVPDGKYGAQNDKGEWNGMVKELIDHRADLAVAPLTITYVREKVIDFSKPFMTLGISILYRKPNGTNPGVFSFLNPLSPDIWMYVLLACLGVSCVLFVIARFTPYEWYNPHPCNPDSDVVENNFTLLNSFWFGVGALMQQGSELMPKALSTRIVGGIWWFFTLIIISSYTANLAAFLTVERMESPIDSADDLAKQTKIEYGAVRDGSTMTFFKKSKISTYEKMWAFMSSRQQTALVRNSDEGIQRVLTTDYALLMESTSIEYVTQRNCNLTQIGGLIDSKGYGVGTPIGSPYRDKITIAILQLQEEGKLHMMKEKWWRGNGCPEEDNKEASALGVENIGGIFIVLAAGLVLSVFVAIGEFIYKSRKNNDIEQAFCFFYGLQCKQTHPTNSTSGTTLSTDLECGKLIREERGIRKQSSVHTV

As to `CC(C)n1nnc(-c2onc(O)c2CC(N)C(=O)O)n1` (centres undefined), the response in [1] was half-maximal at 71 µM (EC50). The Ki at Glutamate receptor 1 was 10 µM; at Glutamate receptor 3, 3.71 µM; at Glutamate receptor 2, 2.93 µM; on Glutamate receptor 4 it was 2.35 µM; in [2], 34.2 µM; in test [5] it was greater than 100 µM. This molecule also registered a Ki on Glutamate NMDA receptor greater than 100 µM. Further, the IC50 in test [3] was 6.2 µM; in test [4] it was greater than 100 µM.
In the case of `CCn1nnnc1-c1onc(O)c1CC(N)C(=O)O` (centres undefined), the IC50 is 27 µM in [3] and greater than 100 µM in [4]. The molecule also yielded a Ki on Glutamate NMDA receptor greater than 100 µM.
Regarding `Cn1nnnc1-c1onc(O)c1CC(N)C(=O)O` (centres undefined), the EC50 in [1] was greater than 1000 µM. Further, the half-inhibitory concentration (IC50) in [3] is 54 µM; in [4] it was greater than 100 µM. The inhibition constant Ki at Glutamate NMDA receptor was greater than 100 µM.
For `CC(C)n1nnnc1-c1onc(O)c1CC(N)C(=O)O` (centres undefined), the IC50 in [3] and in test [4] was greater than 100 µM throughout. The molecule further showed a Ki on Glutamate NMDA receptor greater than 100 µM.
For `Cn1nnc(-c2o[nH]c(=O)c2C[C@H](N)C(=O)O)n1`, the results for the inhibition constant Ki (in test [2]; in test [5]; on Glutamate NMDA receptor) were 0.081 µM, 18.8 µM and greater than 1000 µM, respectively. This molecule gave an IC50 in test [3] of 0.009 µM.
As for `CCn1nnc(-c2o[nH]c(=O)c2CC(N)C(=O)O)n1` (centres undefined), a half-maximal response in [1] (EC50) required 3.5 µM. The inhibition constant (Ki) at Glutamate receptor 1 was 0.145 µM; at Glutamate receptor 3 it was 0.0448 µM; on Glutamate receptor 2 it was 0.0802 µM; at Glutamate receptor 4 it was 0.0444 µM; in test [2] it was 2.92 µM; in test [5], greater than 100 µM. Moreover, the inhibition constant Ki at Glutamate NMDA receptor was greater than 100 µM. Moreover, the IC50 was 0.134 µM in [3] and greater than 100 µM in test [4].
Turning to `CCCn1nnnc1-c1onc(O)c1CC(N)C(=O)O` (centres undefined), the IC50 in test [3] and in test [4] was greater than 100 µM each time. On Glutamate NMDA receptor, this molecule gave a Ki greater than 100 µM.
Take `CCCn1nnc(-c2onc(O)c2CC(N)C(=O)O)n1` (centres undefined): in test [1], the EC50 came to 32 µM. Besides, the Ki at Glutamate receptor 1 is 5.15 µM; at Glutamate receptor 3, 1.18 µM; at Glutamate receptor 2, 1.61 µM; at Glutamate receptor 4 it was 0.732 µM; in test [2], 5.45 µM; in [5], greater than 100 µM. The molecule also registered a Ki at Glutamate NMDA receptor greater than 100 µM. Also, the results for the IC50 in test [3] and in [4] were 2.5 µM and greater than 100 µM, respectively.
In test [3], `Cn1nnc(-c2onc(O)c2CC(N)C(=O)O)n1` (racemic) gave a 50% inhibitory concentration (IC50) of 0.027 µM. For the same molecule, the Ki on Glutamate NMDA receptor was greater than 100 µM.
